Data: patent US20060069132A1, “Azolecarboxamide herbicides” (priority 2004, published 2006)

Key:
[1] = system: barnyardgrass; experiment: Test A pre-/postemergence herbicide test; assay type: in vivo, Echinochloa crus-galli
Method in brief: (§1)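 Greenhouse injury scoring (0–100, complete control = 100) at approximately ten days follows simultaneous pre- and postemergence application. Soil received a directed spray after seeding; seedlings of 2–10 cm at the one- to two-leaf stage were sprayed to runoff.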

[2] = system: large crabgrass; experiment: Test A pre-/postemergence herbicide test; assay type: in vivo, Digitaria sanguinalis
Method in brief: as §1

[3] = system: redroot pigweed; experiment: Test A pre-/postemergence herbicide test; assay type: in vivo, Amaranthus retroflexus
Method in brief: as §1

[4] = system: corn; experiment: Test C pre-/postemergence herbicide test; assay type: in vivo, Zea mays; details: preemergence
Method in brief: (§2)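 Pre/post spray; non-phytotoxic solvent + surfactant. Post-timing 1–4 leaves, 2–18 cm. Read-out: visual % control vs untreated, day 12–14, greenhouse.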

[5] = system: giant foxtail; experiment: Test C pre-/postemergence herbicide test; assay type: in vivo, Setaria faberi; details: preemergence
Method in brief: as §2

[6] = system: kochia; experiment: Test C pre-/postemergence herbicide test; assay type: in vivo, Kochia scoparia; details: preemergence
Method in brief: as §2

[7] = system: lambsquarters; experiment: Test C pre-/postemergence herbicide test; assay type: in vivo, Chenopodium album; details: preemergence
Method in brief: as §2

[8] = system: common ragweed; experiment: Test C pre-/postemergence herbicide test; assay type: in vivo, Ambrosia elatior; set-up: key to Plant response rating, Ragweed: 0 = no effect, 100 = complete control; details: preemergence; for Plant response rating (0 = no effect, 100 = complete control), Ragweed: 125 g ai/ha
Method in brief: as §2

[9] = system: common (oilseed) sunflower; experiment: Test C pre-/postemergence herbicide test; assay type: in vivo, Helianthus annuus; details: preemergence; for Plant response rating (0 = no effect, 100 = complete control), Sunflower: 125 g ai/ha
Method in brief: as §2

[10] = system: velvetleaf; experiment: Test C pre-/postemergence herbicide test; assay type: in vivo, Abutilon theophrasti; details: preemergence; for Plant response rating (0 = no effect, 100 = complete control), Velvetleaf: 125 g ai/ha
Method in brief: as §2

[11] = Postemergence, 500 g ai/ha, 0 to 100 scale, 0 no effect, 100 complete control
[12] = Postemergence, 2000 g ai/ha, 0 to 100 scale, 0 no effect, 100 complete control
[13] = Preemergence, 2000 g ai/ha, visual rating, 0 to 100 scale (0 no effect, 100 complete control)
[14] = preemergence, 500 g ai/ha, visual injury, 0 to 100 scale (0 no effect, 100 complete control)
[15] = 125 g ai/ha, scale 0 (no effect) to 100 (complete control), visual, 12 to 14 days
[16] = 500 g ai/ha, scale 0 to 100 (0 no effect, 100 complete control), visual, 12 to 14 days

| SMILES | Plant response rating, Corn ([4]; 250 g ai/ha, scale 0-100) | Plant response rating, Corn [4, 16] | Plant response rating, Foxtail, Giant ([5]; 62 g ai/ha, scale 0 to 100) | Plant response rating, Foxtail, Giant ([5]; 250 g ai/ha, scale 0-100) | Plant response rating, Foxtail, Giant [5, 16] | Plant response rating, Kochia ([6]; 62 g ai/ha, scale 0 to 100) | Plant response rating, Kochia ([6]; 250 g ai/ha, scale 0-100) | Plant response rating, Kochia [6, 16] | Plant response rating, Lambsquarters ([7]; 62 g ai/ha, scale 0 to 100) | Plant response rating, Lambsquarters ([7]; 250 g ai/ha, scale 0-100) | Plant response rating, Lambsquarters [7, 16] | Plant response rating, Ragweed ([8]; 62 g ai/ha, scale 0 to 100) | Plant response rating, Ragweed [8, 16] | Plant response rating, Sunflower ([9]; 62 g ai/ha, scale 0 to 100) | Plant response rating, Sunflower [9, 16] | Plant response rating, Velvetleaf ([10]; 62 g ai/ha, scale 0 to 100) | Plant response rating, Velvetleaf [10, 16] | Plant response rating, Corn ([4]; 62 g ai/ha, scale 0 to 100) | Plant response rating (0 = no effect, 100 = complete control), Corn ([4]; 125 g ai/ha) | Plant response rating (0 = no effect, 100 = complete control), Foxtail, Giant ([5]; 125 g ai/ha) | also measured |
| --- | --- | --- | --- | --- | --- | --- | --- | --- | --- | --- | --- | --- | --- | --- | --- | --- | --- | --- | --- | --- | --- |
| CCNC(=O)c1ccc(F)c(NC(=O)C2CC(C(C)(C)C)=NN2CC)c1 (racemic) [Compound 269] | 40 | 55 | 50 | 100 | 100 | 70 | 100 | 100 | 95 | 100 | 100 | 5 | 90 | 0 | 15 | 5 | 80 |  |  |  | Barnyardgrass plant response rating [1, 11]: 70; Plant response rating, Barnyardgrass [1, 12]: 80; Barnyardgrass plant response rating [1, 13]: 100; Barnyardgrass plant response rating [1, 14]: 95; Crabgrass, Large plant response rating [2, 11]: 35; Plant response rating, Crabgrass, Large [2, 12]: 80; Crabgrass, Large plant response rating [2, 13]: 100; Crabgrass, Large plant response rating [2, 14]: 65; Pigweed plant response rating [3, 11]: 35; Plant response rating, Pigweed [3, 12]: 50; Pigweed plant response rating [3, 13]: 100; Pigweed plant response rating [3, 14]: 100; Plant response rating, Corn [4, 15]: 20; Plant response rating, Foxtail, Giant [5, 15]: 90; Plant response rating, Kochia [6, 15]: 100; Plant response rating, Lambsquarters [7, 15]: 100; Plant response rating, Ragweed ([8]; 250 g ai/ha, scale 0-100): 90; Plant response rating, Sunflower ([9]; 250 g ai/ha, scale 0-100): 5; Plant response rating, Velvetleaf ([10]; 250 g ai/ha, scale 0-100): 75 |
| C=CCNC(=O)c1cccc(NC(=O)c2nn(C(C)C)nc2CC)c1 [Compound 382] | 55 | 60 | 60 | 100 | 100 | 0 | 95 | 100 | 90 | 100 | 100 | 20 | 100 | 0 | 20 | 100 | 100 | 0 | 50 | 90 | Plant response rating (0 = no effect, 100 = complete control), Kochia ([6]; 125 g ai/ha): 20; Plant response rating (0 = no effect, 100 = complete control), Lambsquarters ([7]; 125 g ai/ha): 100; Plant response rating (0 = no effect, 100 = complete control), Ragweed [8]: 65; Plant response rating, Ragweed ([8]; 250 g ai/ha, scale 0-100): 90; Plant response rating, Sunflower ([9]; 250 g ai/ha, scale 0-100): 0; Plant response rating (0 = no effect, 100 = complete control), Velvetleaf [10]: 100; Plant response rating, Velvetleaf ([10]; 250 g ai/ha, scale 0-100): 100 |
| CCc1nn(C(C)C)nc1C(=O)Nc1cccc(C(=O)N(C)CC)c1 [Compound 386] | 80 | 85 | 80 | 90 | 100 | 30 | 100 | 100 | 100 | 100 | 100 | 5 | 100 |  | 85 | 70 | 100 | 10 | 60 | 90 | Plant response rating (0 = no effect, 100 = complete control), Kochia ([6]; 125 g ai/ha): 100; Plant response rating (0 = no effect, 100 = complete control), Lambsquarters ([7]; 125 g ai/ha): 100; Plant response rating (0 = no effect, 100 = complete control), Ragweed [8]: 98; Plant response rating, Ragweed ([8]; 250 g ai/ha, scale 0-100): 100; Plant response rating (0 = no effect, 100 = complete control), Sunflower [9]: 40; Plant response rating, Sunflower ([9]; 250 g ai/ha, scale 0-100): 85; Plant response rating (0 = no effect, 100 = complete control), Velvetleaf [10]: 100; Plant response rating, Velvetleaf ([10]; 250 g ai/ha, scale 0-100): 100 |
| CCc1nn(C(C)C)nc1C(=O)Nc1cccc(C(=S)N(C)C)c1 [Compound 409] | 75 | 80 | 30 | 95 | 95 |  | 85 | 95 | 100 | 100 | 100 | 45 | 95 | 0 | 55 | 5 | 100 | 0 | 5 | 85 | Plant response rating (0 = no effect, 100 = complete control), Kochia ([6]; 125 g ai/ha): 70; Plant response rating (0 = no effect, 100 = complete control), Ragweed [8]: 85; Plant response rating (0 = no effect, 100 = complete control), Sunflower [9]: 5; Plant response rating (0 = no effect, 100 = complete control), Velvetleaf [10]: 30 |
| Cc1nn(C(C)(C)C)nc1C(=O)Nc1cccc(C(=S)N(C)C)c1 [Compound 419] | 0 | 40 | 75 | 95 | 100 | 90 | 100 | 100 | 95 | 100 | 100 | 10 | 100 | 0 | 95 | 100 | 100 | 0 | 0 | 85 | Plant response rating (0 = no effect, 100 = complete control), Kochia ([6]; 125 g ai/ha): 95; Plant response rating (0 = no effect, 100 = complete control), Lambsquarters ([7]; 125 g ai/ha): 95; Plant response rating (0 = no effect, 100 = complete control), Ragweed [8]: 15; Plant response rating (0 = no effect, 100 = complete control), Sunflower [9]: 0; Plant response rating (0 = no effect, 100 = complete control), Velvetleaf [10]: 100 |
| CCNC(=S)c1cccc(NC(=O)c2nn(C(C)(C)C)nc2C)c1 [Compound 420] | 10 | 40 | 20 | 100 | 100 | 70 | 100 | 100 | 95 | 100 | 100 | 0 | 85 | 0 | 65 | 80 | 100 | 0 | 0 | 90 | Plant response rating (0 = no effect, 100 = complete control), Kochia ([6]; 125 g ai/ha): 85; Plant response rating (0 = no effect, 100 = complete control), Lambsquarters ([7]; 125 g ai/ha): 100; Plant response rating (0 = no effect, 100 = complete control), Ragweed [8]: 55; Plant response rating (0 = no effect, 100 = complete control), Sunflower [9]: 0; Plant response rating (0 = no effect, 100 = complete control), Velvetleaf [10]: 100 |
